Laboratory results published in ChEMBL document CHEMBL3045715, “Fungicidal Properties of N-(3, 5-Dichlorophenyl)-N-methoxyformamidine and Computer Studies of Its Active Structures” (J Pestic Sci, 1991).
Activity calls are given as the source filed them. The rule behind the calls is not given here.

Assays:
[1] = test system: Botrytis cinerea; test: Antifungal activity against Botryotinia fuckeliana Bc-44 in kidney bean leaves assessed as reduction of disease diameter lesions at 200 ppm after 4 days; assay type: functional; set-up: scale not given: the % may be the effect or the level left
[2] = test system: Botrytis cinerea; test: Antifungal activity against Botryotinia fuckeliana Bc-44 in kidney bean leaves assessed as reduction of disease diameter lesions at 50 ppm after 4 days; assay type: functional; set-up: scale not given: the % may be the effect or the level left
[3] = test system: Botrytis cinerea; test: Resistant ratio of EC50 for benzimidazole-sensitive Botryotinia fuckeliana Bc-9 to EC50 for benzimidazole-resistant Botryotinia fuckeliana Bc-44; assay type: functional
[4] = test system: Botrytis cinerea; test: Antifungal activity against benzimidazole-sensitive Botryotinia fuckeliana Bc-9 assessed as inhibition of radial mycelial growth after 48 hr; assay type: functional, organism-based
[5] = test system: Botrytis cinerea; test: Antifungal activity against benzimidazole-resistant Botryotinia fuckeliana Bc-44 assessed as inhibition of radial mycelial growth after 48 hr; assay type: functional, organism-based
[6] = test system: Botrytis cinerea; test: Antifungal activity against benzimidazole-sensitive Botryotinia fuckeliana Bc-9 assessed as inhibition of hyphae extension at 1 ug/ml after 48 hr; assay type: functional, organism-based
[7] = test system: Botrytis cinerea; test: Antifungal activity against benzimidazole-sensitive Botryotinia fuckeliana Bc-9 assessed as distorted and swollen germ tube at 1 ug/ml after 48 hr; assay type: functional, organism-based
[8] = test system: Botrytis cinerea; test: Antifungal activity against benzimidazole-sensitive Botryotinia fuckeliana Bc-9 assessed as inhibition of hyphae extension at 15 ug/ml after 48 hr; assay type: functional, organism-based
[9] = test system: Botrytis cinerea; test: Antifungal activity against benzimidazole-sensitive Botryotinia fuckeliana Bc-9 assessed as distorted and swollen germ tube at 15 ug/ml after 48 hr; assay type: functional, organism-based
[10] = test system: Botrytis cinerea; test: Antifungal activity against benzimidazole-resistant Botryotinia fuckeliana Bc-44 assessed as inhibition of hyphae extension at 15 ug/ml after 48 hr; assay type: functional, organism-based
[11] = test system: Botrytis cinerea; test: Antifungal activity against benzimidazole-resistant Botryotinia fuckeliana Bc-44 assessed as distorted and swollen germ tube at 15 ug/ml after 48 hr; assay type: functional, organism-based
[12] = test system: Botrytis cinerea; test: Antifungal activity against benzimidazole-resistant Botryotinia fuckeliana Bc-44 assessed as inhibition of conidia germination at 15 ug/ml after 48 hr; assay type: functional, organism-based

Compound	Activity [1] [%]	Activity [2] [%]	further results
CCO/N=C(/Nc1cc(Cl)cc(Cl)c1)SC	26	<25	–
CCONC(=S)Nc1cc(Cl)cc(Cl)c1	<25	<25	–
CCO/N=C/Nc1cc(Cl)cc(Cl)c1	100	90	–
CN(C#N)c1cc(Cl)cc(Cl)c1	90	26	–
N#CNc1cc(Cl)cc(Cl)c1	<25	<25	–
CCONC(=O)Nc1cc(Cl)cc(Cl)c1	<25	<25	–
CNC(=O)Oc1nc2ccccc2[nH]1	–	–	Ratio EC50 [3]: 0.0005; EC50 [4]: 0.05 ppm; EC50 [5]: > 100 ppm
Clc1cc(Cl)cc(Nc2nccs2)c1	26	<25	–
COC(=O)Nc1cc(Cl)cc(Cl)c1	100	90	inhibition [6]: inactive; inhibition [7]: inactive; Ratio EC50 [3]: 25; EC50 [4]: 5 ppm; EC50 [5]: 0.2 ppm
CCO/N=C(\C)Nc1cc(Cl)cc(Cl)c1	100	50	–
CO/N=C/Nc1cc(Cl)cc(Cl)c1	100	90	inhibition [8]: inactive; inhibition [9]: inactive; inhibition [10]: Active; inhibition [11]: Active; Activity [12]: inactive; Ratio EC50 [3]: 10; EC50 [4]: 30 ppm; EC50 [5]: 3 ppm
